Assay results as given in US20210353648A1, “GRAPIPRANT UNIT DOSAGE FORMS” (Arrys Therapeutics, Inc., priority 2018, published 2021).
Read-outs that look alike come from different tables or passages of the source.

How the values were obtained:
[1] = Phase 1 crossover food effect study of 375 mg grapiprant tablets: safety; type: in vivo, human; conditions: for subjects with treatment-emergent adverse events / treatment-emergent adverse events: 12 subjects
Procedure: This study was a randomized, open-label, single dose, 2-period crossover design. Each subject participated in 2 study periods. In each study period, subjects received a dose of 375 mg administered as 3×125 mg tablets of grapiprant under fasted or fed conditions in a crossover manner according to a randomized dosing sequence. The fed condition consisted of a standardized high-fat meal. Following an initial screening period of no longer than 28 days, 12 eligible subjects were to be randomized to the 2 treatment sequences and 2 treatment period sessions as shown in Table 6-1.
All subjects were evaluated for safety, which was assessed by adverse events either spontaneously reported or elicited by non-leading questions from study staff, clinical observations, safety laboratory tests, vital signs, 12-lead ECGs, concomitant medication assessment, physical examination, and fecal occult blood tests.

[2] = Phase 1 single ascending dose study of grapiprant OPC: pharmacokinetics; type: in vivo, human; conditions: for AUC(0-t) / Cmax / AUC(0-inf) / Tmax / half-life: human, oral, serum
Procedure: Eligible subjects were to be enrolled into 8 sequential cohorts, corresponding to the planned dose levels of 1 mg, 3 mg, 10 mg, 30 mg, 100 mg, 300 mg, 600 mg, and 1000 mg. […] After determining a maximum tolerated dose (MTD), or after completing the highest dose cohort if a MTD was not determined, Cohort 11 would be enrolled to increase the number of subjects evaluated at the MTD (or the highest dose).
In each dosing period, subjects were confined to the Clinical Research Unit (CRU) for approximately 60 hours (from approximately 36 hours predose through 24 hours postdose), and were instructed to return to the study site at 48 hours postdose for collection of blood samples for safety and pharmacokinetic evaluations. Subjects had triplicate ECG measurements made at select time-points on Day 0 (to provide a time-matched baseline) and through 24 hours postdose. Continuous cardiac monitoring by telemetry was performed for 12 hours postdose (or up to 24 hours, if warranted, based on the pharmacokinetic data). Creatine phosphokinase (CPK; total CPK and CPK-MB isoenzyme) and troponin I levels were monitored predose and at 12 and 24 hours postdose. In each dosing period, blood samples were collected predose and at 0.5, 1, 1.5, 2, 2.5, 3, 4, 6, 8, 12, 16, 24, and 48 hours postdose for pharmacokinetic evaluation. Fecal occult blood was monitored predose and through 48 hours postdose. Urine was collected through 24 hours postdose for exploratory biotransformation analyses. Since grapiprant may be a substrate of efflux transporters, genotyping for P-gp, an efflux transporter, was also planned for this study.
Pharmacokinetics: The maximum observed serum concentration (Cmax) of grapiprant was estimated directly from raw serum concentration-time data with Tmax defined as the time of the first occurrence of Cmax. The apparent terminal elimination rate constant (kel) was estimated using least-squares regression analysis of the serum concentration-time data obtained during the terminal log-linear phase. The apparent terminal half-life (T½) was calculated as In 2/kel. Areas under the serum concentration-time curve from time 0 to the last time (Tlast) with a quantifiable concentration [AUC(Tlast)] were estimated using linear/log trapezoidal approximation. Areas under the serum concentration-time curve from time Tlast to infinity [AUC(Tlast-inf)] were estimated as Cpest/kel, where Cpest represented the estimated concentration at time Tlast based on the aforementioned regression analysis. Areas under the serum concentration-time curve from time 0 to infinity [AUC(inf)] were estimated as the sum of AUC(Tlast) and AUC(Tlast-inf). […] Individual serum concentrations of grapiprant were summarized in tabular and graphical form. Concentrations that were determined to be below the lower limit of quantification were assumed to be equal to zero for the pharmacokinetic analyses and mean concentration-time plots.
The 600 mg dose was studied in 2 separate cohorts. The second of these two cohorts was conducted to confirm safety assessments at this dose strength. For the pharmacokinetic analysis, pharmacokinetic parameters of both cohorts were pooled together and analyzed as a single group.

[3] = single 1 mg dose as OPC, fasted, healthy adults, mean
[4] = single 3 mg dose as OPC, fasted, healthy adults, mean
[5] = single 10 mg dose as OPC, fasted, healthy adults, mean
[6] = single 30 mg dose as OPC, fasted, healthy adults, mean
[7] = single 100 mg dose as OPC, fasted, healthy adults, mean
[8] = single 300 mg dose as OPC, fasted, healthy adults, mean
[9] = single 600 mg dose as OPC, fasted, healthy adults, mean
[10] = single 1000 mg dose as OPC, fasted, healthy adults, mean
[11] = single 1500 mg dose as OPC, fasted, healthy adults, mean
[12] = single 2000 mg dose as OPC, fasted, healthy adults, mean

CCc1nc2c(C)nc(C)cc2n1-c1ccc(CCNC(=O)NS(=O)(=O)c2ccc(C)cc2)cc1 [Grapiprant, N-((4-(2-ethyl-4,6-dimethyl-1H-imidazo[4,5-c]pyridin-1-yl)phenethyl)carbamoyl)-4-methylbenzenesulfonamide]
subjects with treatment-emergent adverse events ([1]; 375 mg tablet-fasted treatment): 5 subjects
treatment-emergent adverse events ([1]; 375 mg tablet-fasted treatment): 7 events
subjects with treatment-emergent adverse events ([1]; 375 mg tablet-fed treatment): 4 subjects
treatment-emergent adverse events ([1]; 375 mg tablet-fed treatment): 5 events
intensity of adverse events ([1]; 375 mg, after both treatments): mild in intensity
QTc ([1]; 375 mg, fasted and fed): no subjects had maximum QTc increases from baseline of ≥30 msec
clinical laboratory tests or vital sign measurements ([1]; 375 mg, fasted and fed): No subjects had clinically significant changes from baseline
deaths, serious adverse events, withdrawals ([1]; 375 mg, fasted and fed): no deaths, serious adverse events, or withdrawals due to adverse events
tolerability ([1]; 375-mg dose of tablets, fasted and fed conditions, healthy adults): well-tolerated
increase of mean serum exposure parameters with dose ([2]; between the 100 mg and 600 mg dose levels, OPC, fasted): greater than dose-proportional increases
AUC(0-t) [2, 3]: 0.0591 µg·h/mL
Cmax [2, 3]: 0.00659 µg/mL
AUC(0-inf) [2, 4]: 0.26 µg·h/mL
AUC(0-t) [2, 4]: 0.246 µg·h/mL
Cmax [2, 4]: 0.0231 µg/mL
AUC(0-inf) [2, 5]: 0.917 µg·h/mL
AUC(0-t) [2, 5]: 0.901 µg·h/mL
Cmax [2, 5]: 0.11 µg/mL
AUC(0-inf) [2, 6]: 2.15 µg·h/mL
AUC(0-t) [2, 6]: 2.12 µg·h/mL
Cmax [2, 6]: 0.262 µg/mL
AUC(0-inf) [2, 7]: 7.22 µg·h/mL
AUC(0-t) [2, 7]: 7.17 µg·h/mL
Cmax [2, 7]: 1.44 µg/mL
AUC(0-inf) [2, 8]: 31.3 µg·h/mL
AUC(0-t) [2, 8]: 31.2 µg·h/mL
Cmax [2, 8]: 12 µg/mL
AUC(0-inf) [2, 9]: 92.5 µg·h/mL
AUC(0-t) [2, 9]: 92.2 µg·h/mL
Cmax [2, 9]: 45 µg/mL
AUC(0-inf) [2, 10]: 175 µg·h/mL
AUC(0-t) [2, 10]: 174 µg·h/mL
Cmax [2, 10]: 64.3 µg/mL
AUC(0-inf) [2, 11]: 242 µg·h/mL
AUC(0-t) [2, 11]: 242 µg·h/mL
Cmax [2, 11]: 83.8 µg/mL
AUC(0-inf) [2, 12]: 479 µg·h/mL
AUC(0-t) [2, 12]: 478 µg·h/mL
Cmax [2, 12]: 134 µg/mL
Tmax ([2]; 1 mg, single 1 mg dose as OPC, fasted, healthy adults, median, read-out: Tmax): 2.5 h
half-life ([2]; 3 mg, single 3 mg dose as OPC, fasted, healthy adults, mean, read-out: T½ (converted)): 5.34 h
Tmax ([2]; 3 mg, single 3 mg dose as OPC, fasted, healthy adults, median, read-out: Tmax): 3 h
half-life ([2]; 10 mg, single 10 mg dose as OPC, fasted, healthy adults, mean, read-out: T½ (converted)): 5.1 h
Tmax ([2]; 10 mg, single 10 mg dose as OPC, fasted, healthy adults, median, read-out: Tmax): 2 h
half-life ([2]; 30 mg, cohorts with clear bi-exponential decline (30 mg and above), read-out: mean terminal phase T1/2): 6.14 to 9.41 h
half-life ([2]; 30 mg, single 30 mg dose as OPC, fasted, healthy adults, mean, read-out: T½ (converted)): 6.14 h
Tmax ([2]; 30 mg, single 30 mg dose as OPC, fasted, healthy adults, median, read-out: Tmax): 1 h
Tmax ([2]; 100 mg, doses of 100 mg and above, OPC, fasted, read-out: individual Tmax values): 0.5 to 1 h
half-life ([2]; 100 mg, single 100 mg dose as OPC, fasted, healthy adults, mean, read-out: T½ (converted)): 6.91 h
Tmax ([2]; 100 mg, single 100 mg dose as OPC, fasted, healthy adults, median, read-out: Tmax): 0.75 h
half-life ([2]; 300 mg, single 300 mg dose as OPC, fasted, healthy adults, mean, read-out: T½ (converted)): 7.98 h
Tmax ([2]; 300 mg, single 300 mg dose as OPC, fasted, healthy adults, median, read-out: Tmax): 0.75 h
half-life ([2]; 600 mg, single 600 mg dose as OPC, fasted, healthy adults, mean, read-out: T½ (converted)): 8.03 h
Tmax ([2]; 600 mg, single 600 mg dose as OPC, fasted, healthy adults, median, read-out: Tmax): 0.5 h
half-life ([2]; 1000 mg, single 1000 mg dose as OPC, fasted, healthy adults, mean, read-out: T½ (converted)): 9.41 h
Tmax ([2]; 1000 mg, single 1000 mg dose as OPC, fasted, healthy adults, median, read-out: Tmax): 1 h
half-life ([2]; 1500 mg, single 1500 mg dose as OPC, fasted, healthy adults, mean, read-out: T½ (converted)): 8.13 h
Tmax ([2]; 1500 mg, single 1500 mg dose as OPC, fasted, healthy adults, median, read-out: Tmax): 0.75 h
half-life ([2]; 2000 mg, single 2000 mg dose as OPC, fasted, healthy adults, mean, read-out: T½ (converted)): 8.25 h
Tmax ([2]; 2000 mg, single 2000 mg dose as OPC, fasted, healthy adults, median, read-out: Tmax): 1 h
Tmax ([2]; across the dose groups, 1 mg to 2000 mg OPC, fasted, read-out: median Tmax estimates): 0.5 to 3 h
half-life ([2]; over the range of doses studied, OPC, fasted, read-out: mean terminal phase T1/2): 5.1 to 9.41 h
serum concentration-time profile ([2]; single oral dose of OPC formulation, about 1 mg to 2000 mg): rapid absorption followed by a bi-exponential decline in serum concentration
